Experimental data: patent US7094868B2, “Peptides for recognition and targeting of GLIAL cell tumors” (Auburn University, priority 2002, dated 2006)

Legend:
CTX TNA2 astrocytes = experiment: Evaluation of binding selectivity: phage output/input titer on normal astrocytes; type: cell-based, rat; details: for binding selectivity, RG2 glioma versus normal astrocytes: cell-attached phage recovered by elution, FIGS. 7, 10
Procedure: (§1) All analyses were performed in triplicate.

F98 glioma cells = experiment: Evaluation of binding selectivity: phage output/input titer on F98 glioma; type: cell-based, rat; details: eluted phage
Procedure: as §1

RG2 glioma cells [1] = experiment: Evaluation of binding selectivity: phage output/input titer, RG2 glioma versus control cell lines overall; type: cell-based, rat
Procedure: as §1

[2] = system: human glioma cell lines SW1088, M059K, A172, and HS 683; experiment: Phage clone binding to human glioma cell lines; type: cell-based; details: A172, HS 683
Procedure: The ELRGDSLP phage clone was tested further for binding to four different human glioma cell lines: SW1088, M059K, A172, and HS 683, all obtained from the ATCC.

αv, β3, and β1 integrins = experiment: Affinity precipitation of RG2 cell membrane proteins with cross-linked phage, Western blot with anti-integrin antibodies; type: binding, rat
Procedure: Experiments were performed to isolate and purify the RG2-cell-specific protein that was responsible for binding of the ELRGDSLP phage clone to glioma cells. The basic approach was to perform precipitation of RG2 cell membrane proteins by using the phage clone to form an affinity matrix.
To prepare the RG2 cell membrane proteins, RG2 glioma cells were grown in 25 cm^2 tissue culture flasks. The growing medium was removed from the flasks and cells were collected in PBS buffer containing protease inhibitors. Cells were then pelleted by centrifugation and lysed with octylglucoside buffer (10 mM Tris-HCl, pH 7.5, 140 mM NaCl, 10 mM octylglucoside (Sigma), and protease inhibitor cocktail (Sigma); 5 ml per flask). The cell lysate was clarified by centrifugation and the supernatant containing cell membrane proteins was then used for isolation of glioma-specific receptor proteins.
Cross-linked phage were prepared by the method of Smith et al. (1998) (J. Immunol. Methods 215: 151–161) using a water-soluble, multifunctional dextran polymer. After that, ELRGDSLP cross-linked phage were incubated with the clarified lysate of RG2 cells. Following incubation, the crosslinked phage-receptor protein complexes were pelleted by centrifugation at 10,000 rpm for 15 minutes. Phage particles that were not cross-linked remained in the buffer and were discarded. […]

RG2 glioma cells [3] = experiment: Quantitation of binding specificity: phage output/input titer on RG2 glioma cells; type: cell-based, rat; details: cell-surface-bound phage eluted with low pH buffer; 10^9 cfu/flask, 1 hour, room temperature; FIG. 3
Procedure: as §1

[4] = system: BRL 3A hepatocytes, H9c2(2-1) cardiac myoblasts, 27FR fibroblasts; details: cell-attached phage recovered by elution; FIGS. 4, 7, 10
Procedure: In order to evaluate the binding specificity conferred by the peptides, various phage clones were incubated with RG2 glioma cells. Two control phage were compared to the RG2 affinity-selected candidate phage clones (see FIG. 3). […] For the quantitation assay, RG2 cells were grown in 25 cm^2 flasks for approximately 48 hours to sub-confluence. One hour prior to application of phage, the normal media was replaced with serum-free media and incubation was continued. Each phage clone (10^9 cfu/flask) was added to a flask of cells in 2 ml of washing/blocking buffer and incubated for 1 hour at room temperature. Following incubation, unbound phage were removed by washing the cells remaining in the flasks 8 times with 4 ml of cold washing/blocking buffer for 5 minutes per wash. Cell surface-bound phage were recovered by incubation with 1 ml of elution buffer for 10 minutes on ice. The eluate was removed from flasks and neutralized with 1 M Tris. Cells were washed again two times with washing/blocking buffer and lysed by incubation with 1 ml lysis buffer for 30 min at room temperature; the lysate was processed as above. Phage titers were determined by infection of bacteria and are presented in FIG. 3 as a ratio of output to input phage. All analyses were performed in triplicate. […]

**Q.** With “DLTKSTAP [phage clone displaying the synthetic peptide on major coat protein pVIII]” as the sequence, how does the “binding selectivity, RG2 glioma versus normal astrocytes” value (CTX TNA2 astrocytes) read?
**A.** approximately 14 fold

**Q.** With “DSTKSGNM [phage clone displaying the synthetic peptide on major coat protein pVIII]” as the sequence, how does the “binding to F98 glioma compared to RG2 glioma (in words)” value (F98 glioma cells; FIG. 7) read?
**A.** even better binding

**Q.** And the “binding selectivity, RG2 glioma versus normal astrocytes” value (CTX TNA2 astrocytes)?
**A.** 25 fold

**Q.** For “DYDMTKNT [phage clone displaying the synthetic peptide on major coat protein pVIII]”, which “binding selectivity for glioma cells compared to control cells (in words)” value (RG2 glioma cells [1]; RG2 and F98 glioma, astrocytes, myoblasts, hepatocytes, fibroblasts) is on record?
**A.** very selective binding

**Q.** Which results are given for “ELRGDSLP [phage clone displaying the synthetic peptide on major coat protein pVIII]”?
**A.** output/input phage ratio compared between ELRGDSLP and ESRGDSYA phage clones (RG2 glioma cells [1]; lysis, FIGS. 5 and 11): significantly lower; binding to human glioma cell lines (in words) [2]: pronounced glioma-specific binding properties; signal with anti-integrin antibodies in phage-purified protein eluate (αv, β3, and β1 integrins): did not produce any positive signal

**Q.** How did the “ratio of output to input phage (apparent binding affinity) on RG2 glioma cells” value (RG2 glioma cells [3]) turn out when “VDLPQHGQ [phage clone displaying the synthetic peptide on major coat protein pVIII]” was run?
**A.** highest

**Q.** For VGLPEHTQ, which “ratio of output to input phage (apparent binding affinity) on RG2 glioma cells” value (RG2 glioma cells [3]) is on record?
**A.** highest

**Q.** What about the “binding to F98 glioma as % of RG2-binding level” value (F98 glioma cells; FIG. 4) of the same sequence?
**A.** 41%

**Q.** What about the “binding to normal astrocytes as % of RG2-binding level” value (CTX TNA2 astrocytes; eluted phage, FIG. 4) of the same sequence?
**A.** 64%

**Q.** And the “binding selectivity, RG2 glioma versus hepatocytes, myoblasts and fibroblasts” value [4]?
**A.** approximately 5 fold
